Reference: patent US20260256925A1, “INDAZOLE DERIVATIVES AS ESTROGEN RECEPTOR DEGRADERS” (REGENTS OF THE UNIVERSITY OF MICHIGAN, priority 2022, published 2026)

Tests used:
[1] = Cell growth assay, WST-8 (compounds B1-B126); format: cell-based; settings: 96 h; T47D cell line, WST-8, 4 days; read-out: Cell growth inhibition in T47D cell line IC50
Protocol: Cell Growth Assay. The cells are seeded at certain concentration (e.g., at 1500/well) in multi-well plates overnight. Cells are subsequently treated with the compounds. A certain period of time (e.g., 4 days) after the compound treatment, 10% WST-8 reagent is added to the culture medium and incubate under certain condiction (e.g., in a CO2 incubator at 37° C. for 2.5 hours). The absorbance is measured on each sample using a microplate reader at certain wavelength (e.g., 450 nm). The relative absorbance is calculated against the vehicle control from three individually repeats.
Cell Growth Assay. The cells were seeded at 1500/well in 96 well plates overnight. One day after the seeding, they were treated with indicated doses of compounds respectively. 4 days after the compound treatment, 10% WST-8 reagent was added to the culture medium and incubate in a CO2 incubator at 37° C. for 2.5 hours. Before reading, the plate was mixed gently on an orbital shaker for one minute to ensure homogeneous distribution of color. The absorbance was measured of each sample using a microplate reader at a wavelength of 450 nm. The relative absorbance was calculated against the vehicle control from three individually repeats.

ER = biological target: T1, ER (Homo sapiens, UniProt P03372); test: In-cell western blot analysis, relative ER percentage (compounds B1-B126); format: cell-based; settings: ER degradation, 16 hours, read-out: ICW DC50
T1 construct: endogenous in cells; probably T47D or MCF-7
T1 sequence (P03372 1-595): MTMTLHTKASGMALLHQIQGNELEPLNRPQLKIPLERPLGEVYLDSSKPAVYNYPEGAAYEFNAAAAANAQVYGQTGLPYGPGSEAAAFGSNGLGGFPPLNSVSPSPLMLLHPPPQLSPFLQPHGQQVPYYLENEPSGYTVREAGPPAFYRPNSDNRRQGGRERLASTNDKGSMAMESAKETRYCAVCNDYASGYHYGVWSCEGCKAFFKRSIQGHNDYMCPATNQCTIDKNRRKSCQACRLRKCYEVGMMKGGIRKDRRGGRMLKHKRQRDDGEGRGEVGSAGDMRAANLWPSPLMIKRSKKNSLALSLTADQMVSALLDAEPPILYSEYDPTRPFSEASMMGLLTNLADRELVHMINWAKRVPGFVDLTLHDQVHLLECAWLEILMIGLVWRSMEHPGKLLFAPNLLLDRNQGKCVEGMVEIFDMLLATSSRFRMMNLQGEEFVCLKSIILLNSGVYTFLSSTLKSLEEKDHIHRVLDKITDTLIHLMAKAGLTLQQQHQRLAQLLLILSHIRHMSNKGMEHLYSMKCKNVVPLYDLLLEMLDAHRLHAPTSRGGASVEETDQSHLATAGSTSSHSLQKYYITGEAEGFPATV
Protocol: In-cell western blot analysis. Cells are seeded in multi-well plates (e.g., at 40,000 or 10,000 cells/well). Diluted compounds at certain concentration are added (final 0.5% DMSO) and cells are incubated for a certain period of time (e.g., 16 hours). Formaldehyde (e.g., PBS: FA=9:1) is added and followed by washing with PBS. The cells are blocked with Licor blocking buffer (Li-Cor). The relative ER percentage in treated cells are obtained by comparing the values of treated wells to those in untreated and DMSO-treated wells as 100%.
In-cell western blot analysis. a. seed cells in black-sided/clear bottom 96- or 384-well plates at 40,000 or 10,000 cells/well, overnight; b. add diluted compounds (final 0.5% DMSO), 16 hours. […] RT 2h, gentle shaking. Negative control: cells plus secondary antibodies (no primary antibodies); e. wash×4 with PBS +0.05-0.1% Tween 20, gentel shaking; f. anti-rabbit-680 and anti-mouse-800 (both 1:1000 in LiCor block+0.05% Tween20, RT 1h, gentle shaking, no light. LI-COR: 0.2% to reduce background; g. wash×4 with PBS+0.05% Tween 20, gental shaking; h. add 100 μL or 25 μL of PBS to each well and read on CLX plate reader. The relative ER percentage in treated cells were obtained by comparing the values of treated wells to those in untreated and DMSO-treated wells as 100%.

Compound | DC50 (ER) [nM] | IC50 [1] [nM]
C[C@@H]1Cc2c(ccc3[nH]ncc23)[C@@H](c2c(F)cc(N3CC4(CCN(C(=O)CN5CCN6c7cc8c(cc7OC[C@@H]6C5)C(=O)N(C5CCC(=O)NC5=O)C8)CC4)C3)cc2F)N1CC(F)F (stereo partly drawn) [Compound B22, 3-((S)-3-(2-(2-(4-((6S,8R)-7-(2,2-difluoroethyl)-8-methyl-6,7,8,9-tetrahydro-3H-pyrazolo[4,3-f]isoquinolin-6-yl)-3,5-difluorophenyl)-2,7-diazaspiro[3.5]nonan-7-yl)-2-oxoethyl)-8-oxo-1,2,3,4,4a,5,8,10-octahydro-9H-pyrazino[1′,2′:4,5][1,4]oxazino[2,3-f]isoindol-9-yl)piperidine-2,6-dione] | < 10 | < 1
C[C@H]1Cc2c(ccc3[nH]ncc23)[C@H](c2ccc(NC3CN(C(=O)CN4CCN5c6cc7c(cc6OC[C@@H]5C4)C(=O)N(C4CCC(=O)NC4=O)C7)C3)cn2)N1CC(F)(F)F (stereo partly drawn) [Compound B35, 3-((S)-3-(2-(3-((6-((6R,8S)-8-methyl-7-(2,2,2-trifluoroethyl)-6,7,8,9-tetrahydro-3H-pyrazolo[4,3-f]isoquinolin-6-yl)pyridin-3-yl)amino)azetidin-1-yl)-2-oxoethyl)-8-oxo-1,2,3,4,4a,5,8,10-octahydro-9H-pyrazino[1′,2′:4,5][1,4]oxazino[2,3-f]isoindol-9-yl)piperidine-2,6-dione] | 10 to 100 | > 10
C[C@@H]1Cc2c(ccc3[nH]ncc23)[C@@H](c2ccc(N3CCC4(CC3)CN(C(=O)CN3CCC5(CC3)COc3c5ccc5c3CN(C3CCC(=O)NC3=O)C5=O)C4)cn2)N1CC(F)(F)F (stereo partly drawn) [Compound B78, 3-(1′-(2-(7-(6-((6S,8R)-8-methyl-7-(2,2,2-trifluoroethyl)-6,7,8,9-tetrahydro-3H-pyrazolo[4,3-f]isoquinolin-6-yl)pyridin-3-yl)-2,7-diazaspiro[3.5]nonan-2-yl)-2-oxoethyl)-6-oxo-6,8-dihydro-2H,7H-spiro[furo[2,3-e]isoindole-3,4′-piperidin]-7-yl)piperidine-2,6-dione] | < 10 | < 1
COc1cc(N2CCC3(CCN(C(=O)CN4Cc5cc6c(cc5C4)C(=O)N(C4CCC(=O)NC4=O)C6=O)CC3)CC2)ccc1[C@@H]1c2ccc3[nH]ncc3c2C[C@@H](C)N1CC(F)F (stereo partly drawn) [Compound B68, 6-(2-(9-(4-((6S,8R)-7-(2,2-difluoroethyl)-8-methyl-6,7,8,9-tetrahydro-3H-pyrazolo[4,3-f]isoquinolin-6-yl)-3-methoxyphenyl)-3,9-diazaspiro[5.5]undecan-3-yl)-2-oxoethyl)-2-(2,6-dioxopiperidin-3-yl)-6,7-dihydropyrrolo[3,4-f]isoindole-1,3(2H,5H)-dione] | < 10 | 1 to 10
C[C@@H]1Cc2c(ccc3[nH]ncc23)[C@@H](c2ccc(N3CCC4(CCN(C(=O)CN5Cc6cc7c(cc6C5)C(=O)N(C5CCC(=O)NC5=O)C7)CC4)CC3)cn2)N1CC(F)(F)F (stereo partly drawn) [Compound B74, 3-(6-(2-(9-(6-((6S,8R)-8-methyl-7-(2,2,2-trifluoroethyl)-6,7,8,9-tetrahydro-3H-pyrazolo[4,3-f]isoquinolin-6-yl)pyridin-3-yl)-3,9-diazaspiro[5.5]undecan-3-yl)-2-oxoethyl)-1-oxo-3,5,6,7-tetrahydropyrrolo[3,4-f]isoindol-2(1H)-yl)piperidine-2,6-dione] |  | 1 to 10

Further lines, with some results ahead:

DC50 (ER) [nM] | Compound | IC50 [1] [nM]
< 10 | C[C@H]1Cc2c(ccc3[nH]ncc23)[C@H](c2ccc(N3CC4(CCC(CN5CCN6c7ccc8c(c7OC[C@@H]6C5)CN([C@@H]5CCC(=O)NC5=O)C8=O)CC4)C3)cn2)N1CC(F)(F)F [Compound B124, (R)-3-((S)-7-((2-(6-((6R,8S)-8-methyl-7-(2,2,2-trifluoroethyl)-6,7,8,9-tetrahydro-3H-pyrazolo[4,3-f]isoquinolin-6-yl)pyridin-3-yl)-2-azaspiro[3.5]nonan-7-yl)methyl)-1-oxo-1,3,5,5a,6,7,8,9-octahydro-2H-pyrazino[1′,2′:4,5][1,4]oxazino[2,3-e]isoindol-2-yl)piperidine-2,6-dione] | < 1
< 10 | C[C@@H]1Cc2c(ccc3[nH]ncc23)[C@@H](c2cnc(N3CCC4(CCC(CN5CCN6c7ccc8c(c7OC[C@H]6C5)CN([C@H]5CCC(=O)NC5=O)C8=O)CO4)CC3)nc2)N1CC(F)(F)F (stereo partly drawn) [Compound B125, (3S)-3-((5aR)-7-((9-(5-((6S,8R)-8-methyl-7-(2,2,2-trifluoroethyl)-6,7,8,9-tetrahydro-3H-pyrazolo[4,3-f]isoquinolin-6-yl)pyrimidin-2-yl)-1-oxa-9-azaspiro[5.5]undecan-3-yl)methyl)-1-oxo-1,3,5,5a,6,7,8,9-octahydro-2H-pyrazino[1′,2′:4,5][1,4]oxazino[2,3-e]isoindol-2-yl)piperidine-2,6-dione] | < 1
< 10 | C[C@@H]1Cc2c(ccc3[nH]ncc23)[C@@H](c2ccc(N3CCC4(CCC(CN5CCN6c7ccc8c(c7OCC6C5)CN([C@H]5CCC(=O)NC5=O)C8=O)CO4)CC3)nn2)N1CC(F)(F)F (stereo partly drawn) [Compound B127, (3S)-3-(7-((9-(6-((6S,8R)-8-methyl-7-(2,2,2-trifluoroethyl)-6,7,8,9-tetrahydro-3H-pyrazolo[4,3-f]isoquinolin-6-yl)pyridazin-3-yl)-1-oxa-9-azaspiro[5.5]undecan-3-yl)methyl)-1-oxo-1,3,5,5a,6,7,8,9-octahydro-2H-pyrazino[1′,2′:4,5][1,4]oxazino[2,3-e]isoindol-2-yl)piperidine-2,6-dione] | < 1
< 10 | C[C@@H]1Cc2c(ccc3[nH]ncc23)[C@@H](c2ccc(N3CCC4(CC3)CC(CN3CCN5c6cc7c(cc6OC[C@@H]5C3)C(=O)N(C3CCC(=O)NC3=O)C7)CO4)cn2)N1CC(F)(F)F (stereo partly drawn) [Compound B94, 3-((4aS)-3-((8-(6-((6S,8R)-8-methyl-7-(2,2,2-trifluoroethyl)-6,7,8,9-tetrahydro-3H-pyrazolo[4,3-f]isoquinolin-6-yl)pyridin-3-yl)-1-oxa-8-azaspiro[4.5]decan-3-yl)methyl)-8-oxo-1,2,3,4,4a,5,8,10-octahydro-9H-pyrazino[1′,2′:4,5][1,4]oxazino[2,3-f]isoindol-9-yl)piperidine-2,6-dione] | < 1
< 10 | COc1cc(N2CCC3(CC2)CC(CN2CCN4c5ccc6c(c5OC[C@H]4C2)CN([C@H]2CCC(=O)NC2=O)C6=O)CO3)ccc1[C@@H]1c2ccc3[nH]ncc3c2C[C@@H](C)N1CC(F)F (stereo partly drawn) [Compound B81, (3S)-3-((5aR)-7-((8-(4-((6S,8R)-7-(2,2-difluoroethyl)-8-methyl-6,7,8,9-tetrahydro-3H-pyrazolo[4,3-f]isoquinolin-6-yl)-3-methoxyphenyl)-1-oxa-8-azaspiro[4.5]decan-3-yl)methyl)-1-oxo-1,3,5,5a,6,7,8,9-octahydro-2H-pyrazino[1′,2′:4,5][1,4]oxazino[2,3-e]isoindol-2-yl)piperidine-2,6-dione] | < 1
< 10 | C[C@@H]1Cc2c(ccc3[nH]ncc23)[C@@H](c2ccc(N3CC4(CC(CN5CCN6c7ccc8c(c7OC[C@H]6C5)CN(C5CCC(=O)NC5=O)C8=O)CO4)C3)cn2)N1CC(F)(F)F (stereo partly drawn) [Compound B96, 3-((5aR)-7-((2-(6-((6S,8R)-8-methyl-7-(2,2,2-trifluoroethyl)-6,7,8,9-tetrahydro-3H-pyrazolo[4,3-f]isoquinolin-6-yl)pyridin-3-yl)-5-oxa-2-azaspiro[3.4]octan-7-yl)methyl)-1-oxo-1,3,5,5a,6,7,8,9-octahydro-2H-pyrazino[1′,2′:4,5][1,4]oxazino[2,3-e]isoindol-2-yl)piperidine-2,6-dione] | < 1
